Reference: US20060094783A1 (Tava Pharmaceutical Industries, Ltd., priority 1990, published 2006)
Where a name gives a salt, the structure may show the parent alone. Read-outs that look alike come from different tables or passages of the source.

Columns and labels:
MAO-A [1] = target: T1, MAO-A (Rattus norvegicus, UniProt P21396); assay: Rat brain MAO inhibition by propargylamines (Table IA), A form; assay type: biochemical; settings: between the two epimers
T1 construct: MAO activity determined in brain and liver; from tissue; host or cells: brain and liver of male Sprague-Dawley-derived rats
T1 sequence (P21396 1-526): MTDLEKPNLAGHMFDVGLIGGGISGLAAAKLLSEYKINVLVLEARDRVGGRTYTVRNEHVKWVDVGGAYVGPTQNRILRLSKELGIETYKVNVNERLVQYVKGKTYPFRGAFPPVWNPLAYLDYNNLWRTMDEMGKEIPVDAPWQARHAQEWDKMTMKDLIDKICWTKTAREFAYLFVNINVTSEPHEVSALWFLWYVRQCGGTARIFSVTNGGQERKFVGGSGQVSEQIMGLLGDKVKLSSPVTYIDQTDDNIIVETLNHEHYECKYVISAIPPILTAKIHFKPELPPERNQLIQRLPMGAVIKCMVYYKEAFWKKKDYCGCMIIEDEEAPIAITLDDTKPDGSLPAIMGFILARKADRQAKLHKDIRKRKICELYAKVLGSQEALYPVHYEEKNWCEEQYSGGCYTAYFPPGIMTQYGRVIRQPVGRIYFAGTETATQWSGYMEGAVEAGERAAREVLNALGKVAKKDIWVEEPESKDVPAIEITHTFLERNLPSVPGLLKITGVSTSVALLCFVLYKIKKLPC

[2] = tested on: maximal electroshock seizures in mice; assay: Maximal electroshock test (MES test) in mice; assay type: in vivo, mouse; settings: i.p.
From the text: (§1) The MES test is a classical model to indicate efficacy for partial and generalized seizures in humans. The agents' mechanism of action is via their ability to prevent the spread of seizures. Some agents, however, that prevent seizure spread have the side effect of lowering seizure threshold. These agents therefore have both proconvulsive and anticonvulsive side effects.

[3] = tested on: maximal electroshock seizures in rats; assay: Maximal electroshock test (MES test) in rats; assay type: in vivo, rat; settings: p.o., 50 mg/kg
From the text: as §1

guinea-pig ileum [4] = assay: Antagonism of bethanechol-induced (fixed dose) contractions of guinea-pig ileum; settings: bethanechol 0.8 μM
guinea-pig ileum [5] = assay: Antagonism of histamine-induced contractions of guinea-pig ileum; settings: histamine 40 nM
guinea-pig ileum [6] = assay: Antagonism of bethanechol-induced contractions of guinea pig ileum in presence of 400 μM PAI HCl enantiomer; settings: 400 μM enantiomer
rabbit jejunum = assay: Tyramine potentiation in isolated jejunum preparation
Method: Peripheral effects of the hydrochloride salts of the enantiomers of PAI were determined in isolated rabbit or guinea-pig small intestine. These observations provide useful information on their relative peripheral side effects in humans. The first point of contact of the subject with an orally administered drug is the gastrointestinal tract where concentrations of the drug are much higher than after absorption and distribution. In the case of PAI hydrochloride (Mw=208), a 10 mg oral dose contained in a liquid volume of about 100 ml would be equivalent to a concentration of about 0.5 mM. In contrast, the therapeutic plasma concentration of (R)-PAI hydrochloride is in the nanomolar range.

[7] = tested on: MPTP-induced striatal DA and DOPAC depletions in mice; assay: Suppression of MPTP-induced dopaminergic toxicity (striatal DA and DOPAC); assay type: in vivo, mouse; settings: PAI […] i.p., deprenyl 5 mg/kg i.p., 5 days
MAO [8] = settings: inhibiting oxidative deamination of tyramine, rat brain homogenate; cited from earlier work
MAO [9] = settings: rat liver homogenate; cited from earlier work
MAO-A [10] = target: T1, MAO-A; assay: Inhibition of MAO activity in vivo, acute treatment, MAO-A; settings: for IC-50 MAO-A: rat
MAO-B [11] = target: T2, MAO-B (Rattus norvegicus, UniProt P19643); assay: Inhibition of MAO activity in vivo, acute treatment, MAO-B; design: in a rat brain preparation of MAO; host or cells: rat brain preparation; settings: for IC-50 MAO-B: I.P., 1 h after dose
T2 sequence (P19643 1-520): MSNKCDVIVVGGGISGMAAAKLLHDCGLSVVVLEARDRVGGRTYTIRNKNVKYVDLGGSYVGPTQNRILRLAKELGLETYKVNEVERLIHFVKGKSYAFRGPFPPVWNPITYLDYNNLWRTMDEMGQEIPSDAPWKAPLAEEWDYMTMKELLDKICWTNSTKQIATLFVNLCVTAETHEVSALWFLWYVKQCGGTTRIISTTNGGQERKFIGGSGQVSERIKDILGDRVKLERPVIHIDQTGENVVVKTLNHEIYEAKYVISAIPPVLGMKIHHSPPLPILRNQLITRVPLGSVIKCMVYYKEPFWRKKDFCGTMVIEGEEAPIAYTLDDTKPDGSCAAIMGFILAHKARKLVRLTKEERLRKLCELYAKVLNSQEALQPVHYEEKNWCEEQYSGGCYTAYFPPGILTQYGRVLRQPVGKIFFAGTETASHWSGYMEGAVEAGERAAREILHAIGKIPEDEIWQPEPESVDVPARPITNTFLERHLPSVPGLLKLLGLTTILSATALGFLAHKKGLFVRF

[12] = tested on: passive avoidance response in young rats; assay: Passive avoidance test in young rats (memory); assay type: in vivo, rat
From the text: The effect of R(+)-PAI and S(−)-PAI on the improvement or restoration of memory was investigated in the passive avoidance test. If the drug is effective, it increases the latency of response to enter a dark compartment or chamber where an electroshock has been experienced earlier by the rat being tested. The latency of the maximal response is 300 seconds.

MAO-B [13] = target: T2, MAO-B; assay: Inhibition of MAO activity in vitro, rat brain homogenate, PEA substrate; assay type: biochemical; design: in a rat brain preparation of MAO; host or cells: rat brain preparation
Method: The MAO enzyme source was a homogenate of rat brain in 0.3M sucrose, which was centrifuged at 600 g for 15 minutes. […] Substrate concentrations used were 50 uM (PEA) and 1 mM (5-HT). In the case of PEA, enzyme concentration was chosen so that not more than 10% of the substrate was metabolized during the course of the reaction. […] The column was washed with 1.5 ml water, the eluates pooled and the radioactive content determined by liquid scintillation spectrometry. Since the amine substrates are totally retained on the column, radioactivity in the eluate indicates the production of neutral and acidic metabolites formed as a result of MAO activity. Activity of MAO in the sample was expressed as a percentage of control activity in the absence of inhibitors after subtraction of appropriate blank values. The activity determined using PEA as substrate is referred to as MAO-B, and that determined using 5-HT as MAO-A.

MAO-B [14] = target: T2, MAO-B; settings: rat whole brain, 1 mg/kg i.p. single dose
Method: Activity of MAO-B was determined in whole brain tissues as described hereinabove.

[15] = tested on: tyramine pressor response in conscious rats; assay: Potentiation of tyramine pressor effect in conscious rats; assay type: in vivo, rat
Method: The left carotid artery and jugular vein were cannulated with fine polytene tubing (artery) or fine silicone rubber tubing connected to polyethylene tubing (vein), the distal end of which was brought under the skin to an anchor point behind the neck. The tubing was filled with heparinized saline solution, and plugged with a fine steel rod. The animals were treated with 2. mg chloramphenicol by intramuscular injection and allowed to recover from the operation overnight. The following day, the rats were placed in a high-walled container permitting free movement. […] Following an equilibration period of 30 to 40 minutes, tyramine injections (50 or 100 μg) were given, and blood pressure-responses recorded. An interval of at least 15 minutes was maintained between injections after return of blood pressure to control values. Control pressor responses were established, then one of the drugs was injected intraperitoneally, and tyramine responses were repeated over the next 4 hours. The area under the blood pressure response curve was estimated, and the ratio of this area after treatment to before treatment and to 1 to 3 hours after injection of the compounds, was determined using the average of 3 to 4 values obtained in the control period.

[16] = tested on: Metrazol seizure threshold in mice; settings: Kupferberg 1989; cited from earlier work
[17] = pretreatment 1 h before MPTP 30 mg/kg s.c.

## C#CCNC1CCCc2ccccc21 (racemic) [Example 1-PAT, N-propargyl-1-aminotetralin]
MAO-A [1]
  Relative potency A (+/− or R/S): 4

## C#CCN[C@H]1CCc2ccccc21 [(S)-PAI HCl, S-(−)-N-Propargyl-1-aminoindan hydrochloride]
[2]
  ED50 anticonvulsant activity: 57 mg/kg
[3]
  animals protected from seizures: Four out of four
guinea-pig ileum [4]; PAI concentration 20 μM
  Percent relaxation: 40-50
guinea-pig ileum [4]; PAI concentration 60 μM
  Percent relaxation: 60-70
guinea-pig ileum [4]; PAI concentration 100 μM
  Percent relaxation: 100
guinea-pig ileum [4]; PAI concentration 300 μM
  Percent relaxation: 100
guinea-pig ileum [5]; PAI concentration 2 μM
  Percent relaxation: 11
guinea-pig ileum [5]; PAI concentration 4 μM
  Percent relaxation: 15
guinea-pig ileum [5]; PAI concentration 10 μM
  Percent relaxation: 30
guinea-pig ileum [5]; PAI concentration 20 μM
  Percent relaxation: 20
guinea-pig ileum [5]; PAI concentration 30 μM
  Percent relaxation: 33
guinea-pig ileum [5]; PAI concentration 40 μM
  Percent relaxation: 36
guinea-pig ileum [5]; PAI concentration 100 μM
  Percent relaxation: 71
guinea-pig ileum [5]; PAI concentration 200 μM
  Percent relaxation: 90
guinea-pig ileum [5]; PAI concentration 400 μM
  Percent relaxation: 98
guinea-pig ileum [5]; PAI concentration 1000 μM
  Percent relaxation: 100
guinea-pig ileum [6]; bethanechol 0.8 μM
  gram-tension: 0 gram-tension
guinea-pig ileum [6]; bethanechol 2 μM
  gram-tension: 0 gram-tension
guinea-pig ileum [6]; bethanechol 4 μM
  gram-tension: 0 gram-tension
guinea-pig ileum [6]; bethanechol 8 μM
  gram-tension: 0.6 gram-tension
guinea-pig ileum [6]; bethanechol 40 μM
  gram-tension: 1.7 gram-tension
Rabbit jejunum; PAI HCl enantiomer alone, 0.2-4.0 μM
  Percent relaxation: 0
Rabbit jejunum; tyramine 40 μM after 0.2 μM PAI HCl enantiomer
  Percent relaxation: 0
Rabbit jejunum; tyramine 40 μM after 2 μM PAI HCl enantiomer
  Percent relaxation: 35
Rabbit jejunum; tyramine 40 μM after 40 μM PAI HCl enantiomer
  Percent relaxation: 33-50

## C#CCN(C)[C@H](C)Cc1ccccc1 [DEPRENYL R, reference compound]
[7]; drug alone
  striatal DA: 170.6 ± 7.1 ng/mg protein
  striatal DOPAC: 5.6 ± 0.3 ng/mg protein
[7]; [17]
  striatal DA: 197.0 ± 8.0 ng/mg protein
  striatal DOPAC: 6.4 ± 0.5 ng/mg protein
MAO [8]
  times more potent than the S-(+) enantiomer: 500 times
MAO [9]
  times as potent as the S enantiomer: 15 times

## C#CCN(C)C1CCCc2ccccc21 (stereo not drawn) [Example 2-MPAI, N-Methyl-N-propargyl-1-aminotetralin]
MAO-A [1]
  Relative potency A (+/− or R/S): 3

## C#CCN[C@@H]1CCc2ccccc21 [R(+)PAI, R(+)-N-propargyl-1-aminoindan]
MAO-A [10]; rat brain, 0.5 mg/kg oral
  inhibition of MAO-A: no detectable inhibition
MAO-A [10]; I.P., brain, 1 h after dose
  IC-50 MAO-A: 1.2 mg/kg
MAO-A [10]; I.P., liver, 1 h after dose
  IC-50 MAO-A: 5 mg/kg
MAO-A [10]; P.O., brain, 2 h after dose
  IC-50 MAO-A: >5 mg/kg
MAO-A [10]; P.O., liver, 2 h after dose
  IC-50 MAO-A: >5 mg/kg
MAO-B [11]; 1 mg/kg
  inhibition of MAO-B in brain and liver: complete inhibition
MAO-B [11]; brain
  IC-50 MAO-B: 0.07 mg/kg
MAO-B [11]; liver
  IC-50 MAO-B: 0.06 mg/kg
[12]; Protocol A, anoxia-lesioned rats
  percent increase of latency After Electroshock vs corresponding group: 19%
[12]; Protocol A, control rats
  percent increase of latency After Electroshock vs corresponding group: +9%
[12]; Protocol B, anoxia-lesioned rats
  percent increase of latency After Electroshock vs corresponding group: +15%
[12]; Protocol B, control rats
  percent increase of latency After Electroshock vs corresponding group: +23%
[7]; [17]
  striatal DOPAC: 6.0 ± 0.3 ng/mg protein
MAO-B [13]
  times more active for inhibition of MAO-B than MAO-A: 29 times
  times more active than S(−)PAI as inhibitor of MAO-B: ~7,000 times
MAO-B [13]; listed as R(+)-PAI
  times more active than S(−)PAI as inhibitor of MAO-B: about 7000 times
MAO-B [14]
  time of maximal inhibition of MAO-B after injection: 6 h
[15]; 1 mg/kg
  potentiation of tyramine pressor response (in words): no significant potentiation
[15]; 5 mg/kg
  potentiation of tyramine pressor response (in words): significant potentiation

## NC(=O)N1c2ccccc2C=Cc2ccccc21 [carbamazepine]
[16]
  effect on time to first focal seizure and onset of clonus (proconvulsive activity): do not show this effect

## O=C1NC(=O)C(c2ccccc2)(c2ccccc2)N1 [phenytoin]
[16]
  effect on time to first focal seizure and onset of clonus (proconvulsive activity): do not show this effect
